According to patent US20080095778A1, “Treatment Of Fungal Infections” (priority 2004, published 2008):
Read-outs that look alike come from different tables or passages of the source.

Tests used:
[1] = test system: A. terreus; test: Broth microdilution (NCCLS M38-A) checkerboard assay, A. terreus; format: cell-based; conditions: for MIC: Aspergillus terreus, agent alone, read-out: MIC-2 of each agent, Alone; for FIC: MIC in combination divided by MIC alone
Method: (§1) Stock solutions of amphotericin B (AMB, Sigma), caspofungin (Caspo), voriconazole (VOR) and itraconazole (ITZ) were prepared according to the National Committee for Clinical Laboratory Standards (M38-A) in RPMI 1640 with glutamine broth medium, buffered to pH 7.0 with […] morpholinopropanesulphonic acid (MOPS). AMB stock solutions were prepared as a 100× series in 100% dimethyl sulfoxide (DMSO) and diluted in medium to a concentration range of 0.03125 to 16 μg/ml. Caspofungin, voriconazole and itraconazole were tested at a concentration range of 0.03125 to 1024 μg/ml, and Mycograb® (NeuTec Pharma plc) at a concentration range of 0.25 to 1024 μg/ml.
(§2) Clinical isolates of Aspergillus fumigatus (2), A. flavus (1), A. terreus (1) and A. niger (1) were obtained from the Department on Microbiology, Manchester Royal Infirmary, Manchester, UK.
(§3) An inoculum suspension was prepared in buffered RPMI with glutamine medium by probing colonies from a 7 day old Sabouraud plate. The suspension was adjusted to 0.09-0.11 (80% to 82% transmittance) for Aspergillus species, 0.15-0.17 (68% to 70% transmittance). The inoculum was diluted a further 1:2 when added to the antifungal agents in the assay (final inoculum (0.4×10^4 to 0.5×10^4). For AMB and Mycograb®, either alone or in combination, the endpoint was determined as the concentration to produce no growth (MIC-0). Microtitre plates were incubated at 37° C. without agitation for 48 hours for Aspergillus species. For caspofungin, voriconazole and itraconazole, either alone or in combination with Mycograb® antibody, the MIC endpoint was determined as the concentration resulting in a prominent decrease in turbidity (≧50% growth inhibition, MIC-2) compared to the growth control (Keele et al. 2001; Espinel-Ingroff 2003). The final inhibitory concentration (FIC) was calculated for each drug by dividing the MIC in the presence of the second drug by the MIC in its absence. For each combination, two fractions were produced which were summated to produce the fractional final inhibitory concentration. Synergy was defined by value of ≦0.5, indifference was defined by a value of >0.5 to <4.0, and antagonism was defined by a value of ≧4.0 (Matthews et al., 2003).

[2] = test system: A. fumigatus; test: Broth microdilution (NCCLS M38-A) checkerboard assay, A. fumigatus; format: cell-based, Aspergillus fumigatus; conditions: for MIC: Aspergillus fumigatus, agent alone, read-out: MIC-2 of each agent, Alone
Method: as §1, §2, §3

[3] = test system: A. niger; test: Broth microdilution (NCCLS M38-A) checkerboard assay, A. niger; format: cell-based; conditions: for MIC: Aspergillus niger, agent alone, read-out: MIC-2 of each agent, Alone
Method: as §1, §2, §3

[4] = test system: A. flavus; test: Broth microdilution (NCCLS M38-A) checkerboard assay, A. flavus; format: cell-based; conditions: for MIC: Aspergillus flavus, agent alone, read-out: MIC-2 of each agent, Alone
Method: as §1, §2, §3

[5] = test system: Aspergillus species; test: Antifungal activity with Mycograb antibody, summary over the Aspergillus species examined; format: cell-based; conditions: summary of Tables 1-4; agent combined with Mycograb antibody
Method: as §3

[6] = test system: A. fumigatus CI2; test: Broth microdilution (NCCLS M38-A) checkerboard assay, A. fumigatus CI2; format: cell-based, Aspergillus fumigatus; conditions: for MIC: Aspergillus fumigatus, agent alone, read-out: MIC-2 of each agent, Alone
Method: as §1, §2, §3

[7] = Table 2, ≧50% growth inhibition endpoint
[8] = caspofungin and Mycograb combination
[9] = caspofungin and Mycograb in combination
[10] = Table 3, ≧50% growth inhibition endpoint
[11] = itraconazole and Mycograb combination
[12] = itraconazole and Mycograb in combination
[13] = Table 4, ≧50% growth inhibition endpoint
[14] = voriconazole and Mycograb combination
[15] = voriconazole and Mycograb in combination

Question: Which results are given for `CC[C@H](C)C[C@H](C)CCCCCCCCC(=O)N[C@H]1C[C@@H](O)[C@@H](NCCN)NC(=O)[C@@H]2[C@@H](O)CCN2C(=O)[C@H]([C@H](O)CCN)NC(=O)[C@H]([C@H](O)[C@@H](O)c2ccc(O)cc2)NC(=O)[C@@H]2C[C@@H](O)CN2C(=O)[C@H]([C@@H](C)O)NC1=O` [Caspo, caspofungin]?
Answer: MIC [1, 7]: 0.312 µg/mL; FICI [1, 8]: 0.312; Outcome [1, 8]: Synergy (Synergy was defined by value of ≦0.5); MIC-2 of each agent, Combination [1, 9]: 0.078 µg/mL; FIC ([1]; caspofungin and Mycograb): 0.25 µg/mL; MIC [2, 7]: 0.125 µg/mL; FICI [2, 8]: 0.562; Outcome [2, 8]: Indifferent (indifference was defined by a value of >0.5 to <4.0); MIC-2 of each agent, Combination [2, 9]: 0.0625 µg/mL; MIC [3, 7]: 1 µg/mL; FICI [3, 8]: 0.125; Outcome [3, 8]: Synergy (Synergy was defined by value of ≦0.5); MIC-2 of each agent, Combination [3, 9]: 0.125 µg/mL; MIC [4, 7]: 1 µg/mL; FICI [4, 8]: 0.500; Outcome [4, 8]: Indifferent (indifference was defined by a value of >0.5 to <4.0); MIC-2 of each agent, Combination [4, 9]: 0.5 µg/mL; Antifungal activity / surprising effect when used in combination with Mycograb antibody [5]: not observed; MIC [6, 7]: 0.125 µg/mL; FICI [6, 8]: 0.562; Outcome [6, 8]: Indifferent (indifference was defined by a value of >0.5 to <4.0); MIC-2 of each agent, Combination [6, 9]: 0.0625 µg/mL

Question: How did the MIC [1, 10] turn out when `CCC(C)n1ncn(-c2ccc(N3CCN(c4ccc(OCC5COC(Cn6cncn6)(c6ccc(Cl)cc6Cl)O5)cc4)CC3)cc2)c1=O` (centres unmarked) [ITZ, itraconazole] was run?
Answer: The MIC was 0.125 µg/mL.

Question: What about the FICI [1, 11] of the same molecule?
Answer: Its FICI is 0.281.

Question: And the Outcome [1, 11]?
Answer: The Outcome was “Synergy (Synergy was defined by value of ≦0.5)”.

Question: What about the “MIC-2 of each agent, Combination” value [1, 12] of the same molecule?
Answer: The value was 0.0312 µg/mL.

Question: What about the FIC ([1]; itraconazole and Mycograb) of the same molecule?
Answer: Its FIC is 0.25 µg/mL.

Question: What about the MIC [2, 10] of the same molecule?
Answer: The MIC was 0.5 µg/mL.

Question: And the FICI [2, 11]?
Answer: Its FICI is 0.0781.

Question: And the Outcome [2, 11]?
Answer: The Outcome was “Synergy (Synergy was defined by value of ≦0.5)”.

Question: What about the “MIC-2 of each agent, Combination” value [2, 12] of the same molecule?
Answer: Its value is 0.0312 µg/mL.

Question: And the MIC [3, 10]?
Answer: The MIC was 0.125 µg/mL.

Question: What about the FICI [3, 11] of the same molecule?
Answer: The FICI was 0.375.

Question: And the Outcome [3, 11]?
Answer: Its Outcome is “Synergy (Synergy was defined by value of ≦0.5)”.

Question: And the “MIC-2 of each agent, Combination” value [3, 12]?
Answer: The value was 0.0156 µg/mL.

Question: What about the MIC [4, 10] of the same molecule?
Answer: Its MIC is 0.125 µg/mL.

Question: What about the FICI [4, 11] of the same molecule?
Answer: Its FICI is 0.25.

Question: And the Outcome [4, 11]?
Answer: The Outcome was “Synergy (Synergy was defined by value of ≦0.5)”.

Question: And the “MIC-2 of each agent, Combination” value [4, 12]?
Answer: The value was 0.0312 µg/mL.

Question: And the MIC [6, 10]?
Answer: The MIC was 0.5 µg/mL.

Question: And the FICI [6, 11]?
Answer: The FICI was 0.2578.

Question: What about the Outcome [6, 11] of the same molecule?
Answer: The Outcome was “Synergy (Synergy was defined by value of ≦0.5)”.

Question: What about the “MIC-2 of each agent, Combination” value [6, 12] of the same molecule?
Answer: The value was 0.125 µg/mL.

Question: With `C[C@@H](c1ncncc1F)[C@](O)(Cn1cncn1)c1ccc(F)cc1F` [VOR, voriconazole] as the molecule, how does the MIC [1, 13] read?
Answer: The MIC was 0.25 µg/mL.

Question: And the FICI [1, 14]?
Answer: Its FICI is 0.5.

Question: What about the Outcome [1, 14] of the same molecule?
Answer: The Outcome was “Synergy (Synergy was defined by value of ≦0.5)”.

Question: And the “MIC-2 of each agent, Combination” value [1, 15]?
Answer: The value was 0.125 µg/mL.

Question: What about the FIC ([1]; voriconazole and Mycograb) of the same molecule?
Answer: Its FIC is 0.5 µg/mL.

Question: And the MIC [2, 13]?
Answer: The MIC was 0.0625 µg/mL.

Question: What about the FICI [2, 14] of the same molecule?
Answer: The FICI was 0.5.

Question: What about the Outcome [2, 14] of the same molecule?
Answer: The Outcome was “Synergy (Synergy was defined by value of ≦0.5)”.

Question: What about the “MIC-2 of each agent, Combination” value [2, 15] of the same molecule?
Answer: The value was 0.0312 µg/mL.

Question: What about the MIC [3, 13] of the same molecule?
Answer: The MIC was 0.125 µg/mL.

Question: What about the FICI [3, 14] of the same molecule?
Answer: Its FICI is 2.

Question: And the Outcome [3, 14]?
Answer: Its Outcome is “Indifferent (indifference was defined by a value of >0.5 to <4.0)”.

Question: What about the “MIC-2 of each agent, Combination” value [3, 15] of the same molecule?
Answer: The value was 0.125 µg/mL.

Question: What about the MIC [4, 13] of the same molecule?
Answer: Its MIC is 0.25 µg/mL.

Question: And the FICI [4, 14]?
Answer: Its FICI is 0.25.

Question: What about the Outcome [4, 14] of the same molecule?
Answer: Its Outcome is “Synergy (Synergy was defined by value of ≦0.5)”.

Question: And the “MIC-2 of each agent, Combination” value [4, 15]?
Answer: The value was 0.0625 µg/mL.

Question: And the “Antifungal activity / surprising effect when used in combination with Mycograb antibody” value [5]?
Answer: Its value is “surprisingly high level of antifungal activity against all the species examined except for A. niger”.

Question: What about the MIC [6, 13] of the same molecule?
Answer: The MIC was 0.25 µg/mL.

Question: And the FICI [6, 14]?
Answer: Its FICI is 0.5.

Question: And the Outcome [6, 14]?
Answer: The Outcome was “Synergy (Synergy was defined by value of ≦0.5)”.

Question: What about the “MIC-2 of each agent, Combination” value [6, 15] of the same molecule?
Answer: Its value is 0.125 µg/mL.
